Results: patent publication US11761951B2, “Methods of selecting therapeutic molecules” (Bristol-Myers Squibb Company, priority 2015, dated 2023)
Each block holds one compound with its values, some of them ahead of it.

Experiments:
[1] = test system: rat primary cortical neurons; assay: Primary cortical neuron spontaneous calcium oscillation (FLIPR, fluo-4 AM); format: cell-based; conditions: primary neuronal spontaneous calcium oscillations
Method: (§1) To measure primary cortical neuron spontaneous calcium oscillation, rat primary cortical neurons were prepared from Sprague-Dawley rat embryos (E19). Cells were plated 25,000 cells/well onto 384 well poly-D-lysine coated FLIPR plates (Greiner Bio-One) in 25 μl/well Neurobasal media containing B27 supplement and 2 mM glutamine (day 1 in vitro, DIV1). Cells were grown for 11 days at 37° C. in 5% CO2 and fed with 25 μl of additional media on day 4 in vitro (“DIV04”) and day 8 in vitro (“DIV08”) for use on day 11 in vitro (“DIV11”). […] After 1 hr 20 μl of room temperature assay buffer was added and the cells were allowed to equilibrate to room temperature for 10 additional minutes and placed in the fluorescent imaging plate reader (FLIPR). Baseline signal (measurement of intracellular calcium) was read for 100 seconds (1 reading/second) before the addition of anti-sense oligomers. […] FLIPR signal was read for an additional 200 seconds (1 reading/second) after the addition of oligomer. A second 5 minute post addition plate read (300 one second points) on the FLIPR was conducted to allow for additional data capture. Raw data from the 5 minute read was exported and, using Excel, spike amplitude and frequency was calculated. Calculations were performed by measuring the average FLIPR signal over the 300 second read for control (non-treated) wells. […]

[2] = test system: central nervous system (CNS) network activity; assay: CNS network activity in vivo (data not shown)
AMPA receptor = AMPA receptor mediated spontaneous calcium oscillations in primary neurons; format: cell-based, rat; conditions: 25 μM oligomer; presence or absence of 1 mM MgCl2 representing 100% control
Method: as §1

[3] = test system: spontaneous neuronal activity; assay: Electrophysiologic spontaneous neuronal activity in vitro (data not shown); format: cell-based
NMDA receptor = NMDA receptor mediated spontaneous calcium oscillations in primary neurons; format: cell-based, rat; conditions: 25 μM oligomer; presence or absence of 1 mM MgCl2 representing 100% control
Method: as §1

Compound: 6-Cyano-7-nitroquinoxaline-2,3-dione [CNQX]
reduction of calcium oscillations (total AMPA response in the assay) ([1]; CNQX 3 μM): 20%

reduction of calcium oscillations when NMDA receptor function was blocked ([1]; 1 mM MgCl2): about 80%
Compound: [Cl-].[Cl-].[Mg+2] [MgCl2]

Compound: TGTgatgcaggaGTT (antisense TGTGATGCAGGAGTT; listed as DNA, chemistry not given here) [ASO-00007]
impact on central nervous system (CNS) network activity in vivo [2]: negatively impact
inhibition of AMPA receptor mediated calcium oscillations (AMPA receptor): inhibited AMPA receptor
impact on electrophysiologic spontaneous neuronal activity in vitro [3]: negatively impact
inhibition of NMDA receptor mediated calcium oscillations (NMDA receptor): not NMDA receptor
